As a reminder, the CC50 is the concentration at which the toxic effect on the cells reaches its halfway point. High values mean better tolerance by the cells, low ones harm at low concentration.

Data on 1 molecule can be found in article PMC7719179, “Small molecule inhibition of Dynamin-dependent endocytosis targets multiple niche signals and impairs leukemia stem cells” (Nature Communications, 2020).

Molecules are shown by their SMILES. Where “and” joins values, the source holds several entries; their conditions need not be identical. Equal values may be shown once.

Series [1] relates to pre-leukemic clones in DN3a cells. The experiment in a line: Tcrβ gene rearrangement (clonality) in DN3a thymocytes of treated Lmo2^Tg mice. The series is classed as in vivo, mouse. The method, then:
page 8: Supplementary Figure 4. […] therapy (VXL) or combination therapy was administered. Mean ± SEM, 2 -way ANOVA with Tukey’s […] poly-clonal Tcrβ gene rearrangements (pie charts) in these purified thymocytes (n = 5).

In series [2] the test system is self-renewing pre-LSCs in Mx;YFP;Lmo2^Tg mice. The series is described as follows: Intrathymic competition assay in Mx;YFP;Lmo2^Tg mice (%YFP+ DN3a thymocytes, BM). Format: in vivo, mouse. The source says: To exclude this possibility, we used a cell-marking strategy that enables detection of pre-LSCs in the absence of transplantation. In this assay, treatment of Mx1-Cre transgenic Rosa26-YFP (Mx;YFP) reporter mice with polyinosinic-polycytidylic acid (poly (I : C)) induces yellow fluorescent protein (YFP) expression in hematopoietic stem cells (HSCs)[10] (Supplementary Fig. 4e). In WT Mx;YFP mice, normal turnover of the thymus by HSCs leads to the generation of YFP-labelled DN3a cells over a 3-week period. However, in Mx;YFP;Lmo2^Tg mice, the presence of self-renewing pre-LSCs prevents YFP-labelled HSCs to replenish the thymus[10] and, thus, Lmo2^Tg DN3a thymocytes remain YFP negative. Therefore, we reasoned that therapies targeting pre-LSC self-renewal would allow migration of YFP^+ HSCs with the generation of YFP-labelled thymocytes.

Series [3] has as its system pSTAT5 and pERK in AML01-307 and AML18 patient-derived cells. The series is described as follows: pSTAT5 and pERK in AML01-307 and AML18 cells harvested from treated recipients. Format: in vivo, human. The method, then:
(§1) Phosphoflow analysis was performed as previously described. Briefly, 2 × 10^6 cells stained for surface markers were subsequently resuspended into PBS 1× + 4% v/v paraformaldehyde and incubated for 10 min at 4 °C for fixation. Fixed cells were washed twice using PBS 1×, then resuspended in pre-chilled at −20 °C Perm Buffer III (BD Pharmingen) and incubated 30 min at 4 °C for permeabilization. Cells were washed twice using PBS 1× and incubated overnight at 4 °C in PBS 1× + 2% v/v fetal calf serum (FCS) with Cell Signalling purified antibodies (Genesearch Pty Ltd, Arundel QLD, Australia) against pSTAT5 (Tyr694; #9359), phospho-p38 MAPK (Thr180/Tyr182; #4511), phospho-p44/42 (Erk1/2; #9102), phospho-S6 (Ser235/236; #4856) and phospho-Akt (Ser473; #9271) or isotype control. For intracellular HES1 detection, cells stained for surface markers were subsequently fixed and permeabilized using the BD Cytofix/Cytoperm^TM Kit and incubated overnight at 4 °C in PBS 1× + 2% v/v FCS with a purified antibody against HES1 (D6PU; #11988, Cell Signalling) or isotype control. After staining with primary antibodies for phosphoflow or intracellular detection, cells were incubated in permeabilization buffer with donkey Alexa Fluor 488-conjugated anti-rabbit secondary antibody (A-21206, lot #1910751, Molecular Probes, Invitrogen) or goat Alexa Fluor 546-conjugated anti-rabbit secondary antibody (A-11035, lot #1904467, Molecular Probes, Invitrogen) for 1 h on ice, and washed twice in PBS 1×. Fluorescence-activated cell sorting (FACS) analysis was performed using LSRII and LSR Fortessa cytometers, following the gating strategies described in Supplementary Fig. 11. Cell sorting was performed with a FACSAria or BD Influx.
(§2) Patient-derived xenograft models were established as previously described[97],[98]. […] For transplantation assays, 10^6 splenocytes harvested from successfully engrafted primary human ETP-ALL or T-ALL xenografts were injected into nonobese diabetic/severe combined immunodeficient (NOD.Cg-Prkdc^scid, also termed NOD/SCID) or NOD/SCID/Il2rg^tm1wjl/SzJ (NSG) mice[99]. Moreover, 1.5 × 10^6 cells splenocytes harvested from successfully engrafted patient-derived AML xenografts were injected into nonobese diabetic/severe immunodeficient (NOD.Cg-Rag1^tm1MomIl2rg^tm1wjl/SzJ, also termed NRG) mice expressing human IL-3, human GM-CSF and human SCF from the SGM3 triple transgene (NRGS)[100]. Engraftment into recipients was monitored by FACS analysis of peripheral blood as previously described. […] The in vivo efficacy of Dynole 34-2 was assessed 24 h after the last injection by FACS analysis and immunohistochemistry as described in Supplementary Methods. […]
assessed by flow cytometry. […]

The test system of series [4] is pSTAT5 and HES1 in ETP12 and ALL8 patient-derived cells. The experiment in a line: pSTAT5 and HES1 in ETP12 and ALL8 cells harvested from treated recipients. Format: in vivo, human. The method, then: as §1, §2
The nature of series [5]: Clonogenic assay of human CD34-positive HSPCs from healthy donors, 10 days (LC50). Format: cell-based. To be noted: human.
Procedure: Cultures were incubated at 37 °C in 10% CO2 for 10 days in presence of 10 μg/mL rhIL-3 (#200-03, Pepro Tech), 25 μg/mL rhSCF (#300-07, Pepro Tech), 25 μg/mL rhFLT3-L (#300-19, Pepro Tech), rhIL-6 (#200-06, Pepro Tech), 500 nM StemRegenin 1 (SR1; #1227633-49-9, Stem Cell Technologies) and 35 nM UM-171 (#72914, Stem Cell Technologies)[93],[94], then stained with acetyl-cholinesterase and counted for the number of colonies.

In the case of `CCCCCCCCNC(=O)C(C#N)=Cc1cn(CCCN(C)C)c2ccccc12` [Dynole 34-2, 2-Cyano-N-octyl-3-(1-(3-dimethylaminopropyl)-1H-indol-3-yl)-acrylamide], the “Clonality (%) for each sample: Oligoclonal” value in series [1] (mouse, in vivo) was 100% and 50%. Also, the “clonality of DN3a cells by Tcrβ rearrangement” value in series [1] (treated Lmo2^Tg mice, result in words) is “reduced monoclonality”. For the same molecule, the “% YFP+ cells in DN3a population” value in series [2] (Mx, YFP, Lmo2Tg mice, individual mice) was 70.1% and 38.6% and 29.3%. In series [2] (Mx;YFP;Lmo2^Tg mice, vehicle 10%), the “YFP-labelled DN3a thymocytes” value is listed as 46%. Moreover, the “% YFP+ cells in bone marrow” value in series [2] (genotype Mx, YFP, Lmo2Tg) was 99% and 98.9%. The “pERK (MFI) in human CD45+ cells” value in series [3] (PDX AML01-307) was 2273 MFI and 2265 MFI and 2049 MFI; in series [3] (PDX AML18) it was 5026 MFI and 5676 MFI and 5643 MFI and 5242 MFI and 5439 MFI and 6959 MFI. The “pSTAT5 (MFI) in human CD45+ cells” value is 8952 MFI and 11167 MFI and 9167 MFI in series [3] (PDX AML01-307); 4926 MFI and 5695 MFI and 4653 MFI in series [3] (PDX AML18); 2379 MFI and 2645 MFI and 2581 MFI in series [4] (PDX ALL8); 4191 MFI and 3709 MFI and 3790 MFI in series [4] (PDX ETP12). The “HES1 (MFI) in human CD45+ cells” value is 1836 MFI and 2160 MFI and 2094 MFI in series [4] (PDX ALL8); 8443 MFI and 7622 MFI and 8597 MFI and 6696 MFI and 10495 MFI and 10443 MFI in series [4] (PDX ETP12). For the same molecule, the CC50 at 10 days in series [5] (normal human CD34-positive HSPCs, clonogenic assay 10 days, Mean ± SEM) came to 23 ± 5.72 µM; in series [5] (sample 06-02-2018 CD34) it was 8.8 µM; in series [5] (sample 10-03-2018 CD34), 9.85 µM; in series [5] (sample 18/03/2016 CD34) it was 7.09 µM; in series [5] (sample 21-04-2018 CD34), 7.34 µM; in series [5] (sample 22/05/2018 CD34) it was 17.2 µM. Also, the CC50 at 10 days in series [5] (sample 24/06/2016 CD34) was determined as 11.3 µM.
